In ChEMBL document CHEMBL5226387, “A Drimane Meroterpenoid Borate as a Synchronous Ca+ Oscillation Inhibitor from the Coral-Associated Fungus Alternaria sp. ZH-15” (J Nat Prod, 2023):

Legend:
Format in all cases: functional, cell-based
[1] = Neuroprotective activity in C57BL/6J mouse primary neocortical neurons assessed as inhibition of 4-AP-induced spontaneous Ca2+ oscillation frequency treated with compound 15 mins prior to 4-AP challenge and measured after 10 mins by Fluo-4 dye based fluorescence analysis; conditions: Primary neocortical neuron
[2] = Neuroprotective activity in C57BL/6J mouse primary neocortical neurons assessed as inhibition of 4-AP-induced spontaneous Ca2+ oscillation amplitude treated with compound 15 mins prior to 4-AP challenge and measured after 10 mins by Fluo-4 dye based fluorescence analysis; conditions: Primary neocortical neuron
[3] = Neuroprotective activity in C57BL/6J mouse primary neocortical neurons assessed as inhibition of spontaneous Ca2+ oscillation amplitude measured for 15 mins by Fluo-4 dye based fluorescence analysis; conditions: Primary neocortical neuron, 0.25 h
[4] = Neuroprotective activity in C57BL/6J mouse primary neocortical neurons assessed as inhibition of spontaneous Ca2+ oscillation frequency measured for 15 mins by Fluo-4 dye based fluorescence analysis; conditions: Primary neocortical neuron, 0.25 h

Row | SMILES | IC50 [1] [µM] | IC50 [2] [µM] | IC50 [3] [µM] | IC50 [4] [µM]
1 | COc1cc(-c2cc3c(c(=O)o2)C[C@]2(O)[C@@]4(C)C(=O)C=CC(C)(C)[C@]4(O)CC[C@@]2(C)O3)cc(OC)c1OC [TERRITREM B] | 14 | 27 | 5.4 | 8.6
2 | COc1cc(-c2cc3c(c(=O)o2)C[C@@]24OB(O)O[C@]5(CC[C@@]2(C)O3)C(C)(C)C=CC(=O)[C@]45C)cc(OC)c1OC | 12 | 34 | 16 | 15
